Assay results from ChEMBL document CHEMBL5096216, “Rational Design, Synthesis, and Biological Evaluation of Novel S1PR2 Antagonists for Reversing 5-FU-Resistance in Colorectal Cancer” (J Med Chem, 2022).
pIC50, pKd: −log10 of the molar value.

What was measured:
HCT-116 [1] = assay: Reversal of 5-FU resistance in human HCT-116 cells overexpressing DPD assessed as reduction in cell viability incubated for 48 hrs in presence of 5-FU by MTT assay; type: functional, cell-based; conditions: HCT-116, 48 h
SW620/5-FU [2] = assay: Reversal of 5-FU resistance in human SW620/5-FU cells assessed as reduction in cell viability incubated for 48 hrs in presence of 5-FU by MTT assay; type: functional, cell-based
[3] = Cytotoxicity against human NCM460 cells assessed as reduction in cell viability incubated for 48 hrs by MTT assay; type: toxicity, cell-based
NCM460 [4] = assay: Cytotoxicity against human NCM460 cells assessed as reduction in cell viability incubated for 48 hrs in presence of 5-FU by MTT assay; type: functional, cell-based; conditions: NCM460, 48 h
[5] = target: Sphingosine 1-phosphate receptor 3 (Homo sapiens, UniProt Q99500); assay: Binding affinity to S1PR3 (unknown origin) assessed as dissociation constant by surface plasmon resonance analysis
Chain of Sphingosine 1-phosphate receptor 3 (Q99500 whole entry): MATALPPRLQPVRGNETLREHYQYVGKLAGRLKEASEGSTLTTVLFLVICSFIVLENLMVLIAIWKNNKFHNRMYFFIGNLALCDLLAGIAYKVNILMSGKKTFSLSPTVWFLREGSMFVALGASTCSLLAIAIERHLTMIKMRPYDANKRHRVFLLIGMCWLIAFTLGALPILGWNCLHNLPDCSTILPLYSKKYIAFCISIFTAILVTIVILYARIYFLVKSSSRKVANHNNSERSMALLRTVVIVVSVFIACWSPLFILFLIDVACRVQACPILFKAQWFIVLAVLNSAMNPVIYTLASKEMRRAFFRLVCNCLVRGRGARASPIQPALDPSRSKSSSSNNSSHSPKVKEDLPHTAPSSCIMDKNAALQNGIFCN

HT-29 [6] = assay: Antiproliferative activity against human HT-29 cells assessed as reduction in cell viability incubated for 48 hrs by MTT assay; type: functional, cell-based; conditions: HT-29, 48 h
SW620/5-FU [7] = assay: Antiproliferative activity against human SW620/5-FU cells assessed as reduction in cell viability incubated for 48 hrs by MTT assay; type: functional, cell-based
[8] = target: Sphingosine 1-phosphate receptor 5 (Homo sapiens, UniProt Q9H228); assay: Binding affinity to S1PR5 (unknown origin) assessed as dissociation constant by surface plasmon resonance analysis
Chain of Sphingosine 1-phosphate receptor 5 (Q9H228 whole entry): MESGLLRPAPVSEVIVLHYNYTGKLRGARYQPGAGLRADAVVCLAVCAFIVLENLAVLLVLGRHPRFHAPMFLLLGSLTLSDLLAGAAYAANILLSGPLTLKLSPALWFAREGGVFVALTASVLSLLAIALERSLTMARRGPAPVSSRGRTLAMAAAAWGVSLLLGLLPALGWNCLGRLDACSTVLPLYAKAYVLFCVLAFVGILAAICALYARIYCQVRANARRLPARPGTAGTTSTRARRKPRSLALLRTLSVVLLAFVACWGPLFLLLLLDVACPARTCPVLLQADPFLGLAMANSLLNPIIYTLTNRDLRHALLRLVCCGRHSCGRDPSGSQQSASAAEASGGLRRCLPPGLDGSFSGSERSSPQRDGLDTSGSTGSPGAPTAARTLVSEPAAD

[9] = target: Sphingosine 1-phosphate receptor 2 (Homo sapiens, UniProt O95136); assay: Binding affinity to S1PR2 (unknown origin) assessed as dissociation constant by surface plasmon resonance analysis
Chain of Sphingosine 1-phosphate receptor 2 (O95136 whole entry): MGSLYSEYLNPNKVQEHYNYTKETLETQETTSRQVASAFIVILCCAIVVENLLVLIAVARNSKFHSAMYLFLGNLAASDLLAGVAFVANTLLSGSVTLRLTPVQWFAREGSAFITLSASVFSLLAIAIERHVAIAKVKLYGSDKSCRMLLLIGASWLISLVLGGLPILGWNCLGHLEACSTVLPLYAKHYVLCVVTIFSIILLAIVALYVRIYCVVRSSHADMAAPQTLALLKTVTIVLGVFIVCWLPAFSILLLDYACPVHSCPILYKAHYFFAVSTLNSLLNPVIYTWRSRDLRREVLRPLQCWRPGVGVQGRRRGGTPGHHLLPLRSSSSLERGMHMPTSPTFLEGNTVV

HT-29 [10] = assay: Reversal of 5-FU resistance in human HT-29 cells assessed as reduction in cell viability incubated for 48 hrs in presence of 5-FU by MTT assay; type: functional, cell-based; conditions: HT-29, 48 h
HCT-116 [11] = assay: Antiproliferative activity against human HCT-116 cells overexpressing DPD assessed as reduction in cell viability incubated for 48 hrs by MTT assay; type: functional, cell-based; conditions: HCT-116, 48 h
[12] = target: T1, Sphingosine 1-phosphate receptor 4 (Homo sapiens, UniProt O95977); assay: Binding affinity to S1PR4 (unknown origin) assessed as dissociation constant by surface plasmon resonance analysis
T1 sequence (O95977 whole entry): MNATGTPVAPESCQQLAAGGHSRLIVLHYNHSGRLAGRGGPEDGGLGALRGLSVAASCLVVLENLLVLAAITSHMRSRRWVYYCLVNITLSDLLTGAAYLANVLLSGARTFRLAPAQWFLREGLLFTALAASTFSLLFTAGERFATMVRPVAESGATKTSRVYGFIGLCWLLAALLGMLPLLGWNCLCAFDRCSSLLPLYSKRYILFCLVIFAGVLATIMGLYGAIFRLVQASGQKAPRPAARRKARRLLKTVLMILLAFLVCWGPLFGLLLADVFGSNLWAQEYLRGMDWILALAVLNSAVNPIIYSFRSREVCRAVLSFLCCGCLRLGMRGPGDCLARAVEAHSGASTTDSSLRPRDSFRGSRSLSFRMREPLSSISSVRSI

[13] = target: Sphingosine 1-phosphate receptor 1 (Homo sapiens, UniProt P21453); assay: Binding affinity to S1PR1 (unknown origin) assessed as dissociation constant by surface plasmon resonance analysis
Chain of Sphingosine 1-phosphate receptor 1 (P21453 whole entry): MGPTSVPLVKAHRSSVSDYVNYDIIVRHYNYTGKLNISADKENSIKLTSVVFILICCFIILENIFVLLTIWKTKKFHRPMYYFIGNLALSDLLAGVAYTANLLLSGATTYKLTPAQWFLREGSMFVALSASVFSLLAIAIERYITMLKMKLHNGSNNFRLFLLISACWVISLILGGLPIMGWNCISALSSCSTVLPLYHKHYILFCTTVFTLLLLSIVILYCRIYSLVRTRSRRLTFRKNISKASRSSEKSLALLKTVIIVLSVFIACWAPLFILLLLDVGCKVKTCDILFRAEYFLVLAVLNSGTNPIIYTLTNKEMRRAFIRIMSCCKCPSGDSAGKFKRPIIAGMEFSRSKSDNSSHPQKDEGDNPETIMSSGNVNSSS

SW620/5-FU [14] = assay: Antiproliferative activity against human SW620/5-FU cells assessed as reduction in cell viability at 40 uM incubated for 48 hrs by MTT assay; type: functional
SW620/5-FU [15] = assay: Antitumor activity against human SW620/5-FU cells xenografted in nude mouse assessed as tumor volume at 15 mg/kg, iv administered once daily and measured on day 15 (reference value: 1991 +/- 469 mm3); type: functional; conditions: time 15 day
SW-620 [16] = assay: Antiproliferative activity against human SW620 cells assessed as reduction in cell viability incubated for 48 hrs by MTT assay; type: functional, cell-based; conditions: SW-620, 48 h
NCM460 [17] = assay: Cytotoxicity against human NCM460 cells assessed as reduction in cell viability at 40 uM incubated for 48 hrs by MTT assay; type: toxicity, cell-based; conditions: ncm460, 48 h
HCT-116 [18] = assay: Antiproliferative activity against human HCT-116 cells assessed as cell growth inhibition at 40 uM incubated for 48 hrs by MTT assay relative to control; type: functional; set-up: scale not given: the % may be the effect or the level left
HT-29 [19] = assay: Antiproliferative activity against human HT-29 cells assessed as cell growth inhibition at 40 uM incubated for 48 hrs by MTT assay relative to control; type: functional; set-up: scale not given: the % may be the effect or the level left
SW620/5-FU [20] = assay: Induction of apoptosis in human SW620/5-FU cells assessed as late apoptotic cells at 40 uM incubated for 24 hrs by Annexin-V/PI staining based flow cytometry assay (reference value: 2.97%); type: functional
SW-620 [21] = assay: Antiproliferative activity against human SW620 cells assessed as cell growth inhibition at 40 uM incubated for 48 hrs by MTT assay relative to control; type: functional; set-up: scale not given: the % may be the effect or the level left
SW620/5-FU [22] = assay: Induction of apoptosis in human SW620/5-FU cells assessed as necrotic cells at 40 uM incubated for 24 hrs by Annexin-V/PI staining based flow cytometry assay (reference value: 0%); type: functional
SW620/5-FU [23] = assay: Induction of apoptosis in human SW620/5-FU cells assessed as early apoptotic cells at 40 uM incubated for 24 hrs by Annexin-V/PI staining based flow cytometry assay (reference value: 2.73%); type: functional
HCT-116 [24] = assay: Antiproliferative activity against human HCT-116 cells assessed as reduction in cell viability incubated for 48 hrs by MTT assay; conditions: HCT-116, 48 h
SW620/5-FU [25] = assay: Antitumor activity against human SW620/5-FU cells xenografted in nude mouse assessed as tumor growth inhibition at 15 mg/kg/day, iv; type: functional; conditions: read-out: TGI
HT-29 [26] = assay: Antiproliferative activity against human HT-29 cells assessed as reduction in cell viability at 40 uM incubated for 48 hrs by MTT assay; type: functional
SW620/5-FU [27] = assay: Antitumor activity against human SW620/5-FU cells xenografted in nude mouse assessed as tumor volume at 15 mg/kg, iv administered once for every 3 days and measured on day 15 (reference value: 1991 +/- 469 mm3); type: functional; conditions: time 15 day
SW620/5-FU [28] = assay: Antitumor activity against human SW620/5-FU cells xenografted in nude mouse assessed as tumor volume at 15 mg/kg, iv administered once for every 3 days and measured on day 1 (reference value: 105 +/- 14 mm3); type: functional; conditions: time 1 day
HCT-116 [29] = assay: Antiproliferative activity against human HCT-116 cells overexpressing DPD assessed as reduction in cell viability at 40 uM incubated for 48 hrs by MTT assay; type: functional
SW620/5-FU [30] = assay: Antitumor activity against human SW620/5-FU cells xenografted in nude mouse assessed as tumor wight at 15 mg/kg/day, iv (reference value: 1.3 +/- 0.6 g); type: functional
SW620/5-FU [31] = assay: Induction of apoptosis in human SW620/5-FU cells assessed as viable cells at 40 uM incubated for 24 hrs by Annexin-V/PI staining based flow cytometry assay (reference value: 94.3%); type: functional; conditions: read-out: Activity
SW620/5-FU [32] = assay: Antitumor activity against human SW620/5-FU cells xenografted in nude mouse assessed as tumor volume at 15 mg/kg, iv administered once daily and measured on day 1 (reference value: 105 +/- 14 mm3); type: functional; conditions: time 1 day
SW620/5-FU [33] = assay: Antitumor activity against human SW620/5-FU cells xenografted in nude mouse assessed as tumor growth inhibition at 15 mg/kg, iv administered once for every 3 days; type: functional; conditions: 72 h, read-out: TGI
SW620/5-FU [34] = assay: Antitumor activity against human SW620/5-FU cells xenografted in nude mouse assessed as tumor wight at 15 mg/kg, iv administered once for every 3 days (reference value: 1.3 +/- 0.6 g); type: functional

CCC(CC)CN1CCN(C(=O)Nc2cc(Oc3ccc(F)cc3)cc(Oc3ccc(C(=O)N4CCN(C)CC4)cc3)c2)CC1
pIC50 (HCT-116 [1]): 5.40 | pIC50 (SW620/5-FU [2]): 5.45 | IC50 at 48 hrs [3]: > 100 µM | pIC50 (NCM460 [4]): < 4.00 | pKd [5]: < 7.00 | pIC50 (HT-29 [6]): < 4.00 | pIC50 (SW620/5-FU [7]): < 4.00 | pKd [8]: < 7.00 | pKd [9]: 9.16 | pIC50 (HT-29 [10]): 5.24 | pIC50 (HCT-116 [11]): < 4.00 | pKd [12]: < 7.00 | pKd [13]: < 7.00

CNC(=O)c1ccc(Oc2cc(NC(=O)N3CCN(CC4CCCCC4)CC3)cc(Oc3ccc(F)cc3)c2)cc1
pIC50 (HCT-116 [1]): 5.50 | pIC50 (SW620/5-FU [2]): 5.44 | IC50 at 48 hrs [3]: > 100 µM | pIC50 (NCM460 [4]): < 4.00 | pKd [5]: < 7.00 | pIC50 (HT-29 [6]): < 4.00 | pIC50 (SW620/5-FU [7]): < 4.00 | pKd [8]: < 7.00 | pKd [9]: 9.31 | pIC50 (HT-29 [10]): 5.41 | pIC50 (HCT-116 [11]): < 4.00 | pKd [12]: < 7.00 | pKd [13]: < 7.00

O=c1[nH]cc(F)c(=O)[nH]1 [FLUOROURACIL]
Activity (SW620/5-FU [14]): 9.13% | Activity (SW620/5-FU [15]): 1256 mm3 | pIC50 (SW-620 [16]): 4.88 | Activity (NCM460 [17]): 25.33% | Activity (HCT-116 [18]): >70% | Activity (HT-29 [19]): >70% | Activity (SW620/5-FU [20]): 7.76% | Activity (SW-620 [21]): >70% | Activity (SW620/5-FU [22]): 0.17% | Activity (SW620/5-FU [23]): 4.41% | pIC50 (HCT-116 [24]): 4.67 | inhibition in vivo at 15 mg/kg/day (SW620/5-FU [25]): 36.9% | Activity (HT-29 [26]): 5.14% | Activity (SW620/5-FU [27]): 1675 mm3 | Activity (SW620/5-FU [28]): 104 mm3 | Activity (HCT-116 [29]): 8.12% | Activity (SW620/5-FU [30]): 0.8 g | viability at 40 µM (SW620/5-FU [31]): 87.7% | Activity (SW620/5-FU [32]): 102 mm3 | inhibition in vivo at 15 mg/kg (SW620/5-FU [33]): 15.9% | Activity (SW620/5-FU [34]): 1.1 g

CCC(CC)CNC1CCN(C(=O)Nc2cc(Oc3ccncc3)cc(Oc3ccc(F)cc3)c2)CC1
pIC50 (HCT-116 [1]): 5.53 | pIC50 (SW620/5-FU [2]): 5.49 | IC50 at 48 hrs [3]: > 100 µM | pIC50 (NCM460 [4]): < 4.00 | pKd [5]: < 7.00 | pIC50 (HT-29 [6]): < 4.00 | pIC50 (SW620/5-FU [7]): < 4.00 | pKd [8]: < 7.00 | pKd [9]: 9.20 | pIC50 (HT-29 [10]): < 4.00 | pIC50 (HCT-116 [11]): < 4.00 | pKd [12]: < 7.00 | pKd [13]: < 7.00
